Data taken from US12478602B2, “Method for treating a disorder” (priority 2023, dated 2025).

Key:
[1] = system: mice having autism spectrum disorder; test: Anxiety experiment (elevated plus maze) in mouse model of autism spectrum disorder; type: in vivo; conditions: 500 mg/kg orally once a day for 2 weeks; vs untreated autism spectrum disorder mouse
Source text: (§1) Pregnant C57BL/6 mice were subcutaneously injected with valproic acid (VPA) at the time when the gestation period reached 12 days. Male mice were selected from the mice that were born from the pregnant mice that were subcutaneously injected with VPA, and these were used as animals for a mouse model of autism spectrum disorder.
(§2) Since 3-week-old mice are at the critical stage, 3-week-old normal mice and 3-week-old mice having autism spectrum disorder were subjected to a sociality experiment, a social cognition experiment, and an anxiety experiment to identify the underlying features. 500 mg/kg of L-serine (hereinafter, referred to as AST-001) was orally administered for 2 weeks to mice having autism spectrum disorder, in which the underlying features had been confirmed. The mice having autism spectrum disorder, to which AST-001 had been orally administered for 2 weeks, were again subjected to a sociality experiment, a social cognition experiment, and an anxiety experiment.
For 2 weeks from the age of 3 weeks, the normal group and the autism spectrum disorder group were subjected to oral administration with water every day once a day, and in the drug group, mice having autism spectrum disorder were orally administered with 500 mg/kg of AST-001 (dissolved in water) once a day. […]

[2] = system: pediatric patients having autism spectrum disorder; conditions: human, in vivo
[3] = system: mice having autism spectrum disorder; test: Spatial memory experiment (Y-maze test); type: in vivo, mouse; conditions: 180, 300, 480 or 600 mg/kg orally for 28 days; with increasing dosage
Protocol: Mice having autism spectrum disorder were created by the same method as in Example 1.1. The 3-week-old male mice having autism spectrum disorder were orally injected with 180, 300, 480, or 600 mg/kg of L-serine for 28 days and then subjected to a spatial memory test. Normal mice were used as a control group. Eight mice were used for each experimental group. The spatial working memory of the mice was evaluated through the Y-maze test. As the administration dosage of L-serine increased, the value of spontaneous alteration, which is a measure of spatial memory, increased (see FIG. 7).

[4] = system: children having autism spectrum disorder; test: Phase 2 clinical trial, effectiveness; type: in vivo, human; conditions: high-dose short-term administration group, 24 weeks vs 12 weeks
Protocol: 151 children having autism spectrum disorder were subjected to a multicentered, randomly assigned, double-blinded, placebo-controlled, and therapeutically exploratory phase 2 clinical trial for exploring the effectiveness and evaluating the safety of an AST-001 syrup. An AST-001 syrup used in a clinical trial is a colorless or pale yellow clear syrup which is aromatic and has sweetness, and it comprises, as a main ingredient, 10 g of L-serine in about 100 mL of this drug and is packaged in aluminum foil at a dosage of 2 g/20 mL. The composition of the AST-001 syrup is such that the AST-001 syrup comprises L-serine as a main ingredient, sodium carboxymethyl cellulose as a thickener, methyl paraoxybenzoate and propyl paraoxybenzoate as preservatives, a citric acid hydrate and a potassium citrate hydrate as pH adjusting agents, white sugar and a D-sorbitol solution as sweetening agents, an apple mint flavor SJ-G (22005221) as a fragrance imparting agent, and purified water. […] After the extension study period of 12 weeks ended, the effectiveness and adverse events in patients were followed up and monitored for 12 weeks (that is, follow-up period). […] The K-VABS-II Adaptive Behavior Composite (K-VABS-II ABC) score, which is a primary evaluation variable, is a calculated score (standard score) for the main domain, where the higher score means the higher level of adaptive behavior.

[5] = system: mice having autism spectrum disorder; test: Sociality experiment (three-chamber) in mouse model of autism spectrum disorder; type: in vivo; conditions: 500 mg/kg orally once a day for 2 weeks from age 3 weeks
Source text: as §1, §2
A behavioral experiment, which checks whether or not an experimental mouse moves in the direction of a social object in a case where a social object (a non-familiar mouse) and a non-social object (an empty cage) are placed in both side rooms of a three-chamber having three connected rooms, was carried out (see FIG. 1A). […]

For `N[C@@H](CO)C(=O)O` [AST-001, L-serine], the “time staying in the closed-arm space of the elevated plus maze” value [1] was “short time”, the “time staying in the open-arm space of the elevated plus maze” value [1] was “remarkably long time” and the “Adverse event [TEAE], Events” value [2] was 41. The spontaneous alteration [3] was “increased”, the “amount of score change in the K-VABS-II ABC and the main domain, 2DC and CGI-S” value [4] was “significantly improves” and the “interaction time with the social object vs interaction time with the empty cage” value [5] was “significantly higher”. For the same compound, the “preference index for the social object” value [5] was “high”.
